Results published in patent US20040127403A1, “Methods for treating and preventing Gram-positive bacteremias” (priority 2002, published 2004).
“And” between values parts separate entries of the source, which are not always exact repeats. Equal values may be shown once.

What was measured:
Test in all cases: MIC, NCCLS broth microdilution
Format in all cases: cell-based
E. faecalis ATCC29212 = details: E. faecalis ATCC29212
How it was run: (§1)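 NCCLS broth microdilution MICs determined in both cation-adjusted Mueller-Hinton broth and trypticase soy broth. Media containing ramoplanin supplemented with 0.02% BSA to prevent binding to plastic.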

E. faecalis ATCC51299 = details: E. faecalis ATCC51299
How it was run: as §1

E. faecium 1836 = details: E. faecium 1836
How it was run: as §1

E. faecium A-5960 Line-R = details: Table 6, 2nd
How it was run: as §1

E. faecium A2735 Syn-R = system: E. faecium A2735 Syn-R
How it was run: as §1

E. faecium A4192 Syn-R = system: E. faecium A4192 Syn-R
How it was run: as §1

E. faecium A5959 Line-R = details: Table 6, 2nd
How it was run: as §1

E. faecium A6343 Line-R = system: E. faecium A6343 Line-R
How it was run: as §1

E. faecium A6345 Line-R = details: for MIC: E. faecium A6345 Line-R
How it was run: as §1

E. faecium A6349 Line-R = system: E. faecium A6349 Line-R
How it was run: as §1

E. faecium A6350 Line-R = system: E. faecium A6350 Line-R
How it was run: as §1

E. faecium ATCC700221 = details: E. faecium ATCC700221
How it was run: as §1

E. faecium UA210 = details: E. faecium UA210
How it was run: as §1

E. gallinarum UA604 = system: E. gallinarum UA604
How it was run: as §1

S. aureus ATCC12600 MRSA = system: S. aureus ATCC12600 MRSA
How it was run: as §1

S. aureus ATCC19636 MSSA = system: S. aureus ATCC19636 MSSA
How it was run: as §1

S. aureus ATCC27659 MSSA = system: S. aureus ATCC27659 MSSA
How it was run: as §1

S. aureus ATCC27660 MSSA = system: S. aureus ATCC27660 MSSA
How it was run: as §1

S. aureus ATCC43300 MRSA = system: S. aureus ATCC43300 MRSA
How it was run: as §1

[1] = system: S. aureus ATCC700699 MRSA/VISA; details: S. aureus ATCC700699 MRSA/VISA
How it was run: as §1

S. epidermidis ATCC12228 = details: S. epidermidis ATCC12228
How it was run: as §1

S. epidermidis ATCC35983 = details: S. epidermidis ATCC35983
How it was run: as §1

S. epidermidis ATCC35984 = details: S. epidermidis ATCC35984

Ramoplanin
MIC (E. faecalis ATCC29212; CAMHB): 0.5, 0.5 μg/ml | MIC (E. faecalis ATCC29212; TSB): 0.5, 0.5 μg/ml | MIC (E. faecalis ATCC29212; Table 6, 1st): 0.25 µg/mL | MIC (E. faecalis ATCC29212; Table 6, 2nd): 0.5 µg/mL and 0.25 µg/mL | MIC (E. faecalis ATCC51299; CAMHB): 0.5, 0.5 μg/ml | MIC (E. faecalis ATCC51299; TSB): 0.5, 0.5 μg/ml | MIC (E. faecalis ATCC51299; Table 6, 1st): 0.25 µg/mL | MIC (E. faecalis ATCC51299; Table 6, 2nd): 0.5 µg/mL | MIC (E. faecium 1836; CAMHB): 0.5, 0.5 μg/ml | MIC (E. faecium 1836; TSB): 0.5, 0.5 μg/ml | MIC (E. faecium 1836; Table 6, 1st): 0.25 µg/mL | MIC (E. faecium 1836; Table 6, 2nd): 0.5 µg/mL | MIC (E. faecium A-5960 Line-R): 0.25 µg/mL | MIC (E. faecium A2735 Syn-R; CAMHB): 0.25, 0.25 μg/ml | MIC (E. faecium A2735 Syn-R; TSB): 0.5, 0.5 μg/ml | MIC (E. faecium A2735 Syn-R; Table 6, 1st): 0.25 µg/mL | MIC (E. faecium A2735 Syn-R; Table 6, 2nd): 0.25 µg/mL | MIC (E. faecium A4192 Syn-R; CAMHB): 0.25, 0.25 μg/ml | MIC (E. faecium A4192 Syn-R; TSB): 0.5, 0.5 μg/ml | MIC (E. faecium A4192 Syn-R; Table 6, 1st): 0.25 µg/mL | MIC (E. faecium A4192 Syn-R; Table 6, 2nd): 0.5 µg/mL | MIC (E. faecium A5959 Line-R): 0.25 µg/mL | MIC (E. faecium A6343 Line-R; CAMHB): 0.25, 0.25 μg/ml | MIC (E. faecium A6343 Line-R; TSB): 0.25, 0.25 μg/ml | MIC (E. faecium A6343 Line-R; Table 6, 1st): 0.125 µg/mL | MIC (E. faecium A6343 Line-R; Table 6, 2nd): 0.25 µg/mL | reference MIC for strains used for killing curve (E. faecium A6345 Line-R; E. faecium A6345 Line-R. as printed, second row of Table 3): 0.25 µg/mL | reference MIC for strains used for killing curve (E. faecium A6345 Line-R; E. faecium A6345 Line-R., first row of Table 3): 0.25 µg/mL | MIC (E. faecium A6345 Line-R; CAMHB): 0.125, 0.125 μg/ml | MIC (E. faecium A6345 Line-R; TSB): 0.25, 0.25 μg/ml | MIC (E. faecium A6345 Line-R; Table 6, 1st): 0.125 µg/mL | MIC (E. faecium A6345 Line-R; Table 6, 2nd): 0.25 µg/mL | MIC (E. faecium A6349 Line-R; Table 6, 1st): 0.125 µg/mL | MIC (E. faecium A6349 Line-R; Table 6, 2nd): 0.25 µg/mL | MIC (E. faecium A6350 Line-R; CAMHB): 0.25, 0.25 μg/ml | MIC (E. faecium A6350 Line-R; TSB): 0.5, 0.5 μg/ml | MIC (E. faecium A6350 Line-R; Table 6, 1st): 0.25 µg/mL | MIC (E. faecium A6350 Line-R; Table 6, 2nd): 0.25 µg/mL | MIC (E. faecium ATCC700221; CAMHB): 0.25, 0.25 μg/ml | MIC (E. faecium ATCC700221; TSB): 0.5, 0.5 μg/ml | MIC (E. faecium ATCC700221; Table 6, 1st): 0.25 µg/mL | MIC (E. faecium ATCC700221; Table 6, 2nd): 0.25 µg/mL | MIC (E. faecium UA210; CAMHB): 0.125, 0.125 μg/ml | MIC (E. faecium UA210; TSB): 0.125, 0.125 μg/ml | MIC (E. faecium UA210; Table 6, 1st): 0.06 µg/mL | MIC (E. faecium UA210; Table 6, 2nd): 0.125 µg/mL | MIC (E. gallinarum UA604; CAMHB): 0.125, 0.125 μg/ml | MIC (E. gallinarum UA604; TSB): 0.25, 0.25 μg/ml | MIC (E. gallinarum UA604; Table 6, 1st): 0.06 µg/mL | MIC (E. gallinarum UA604; Table 6, 2nd): 0.125 µg/mL | MIC (S. aureus ATCC12600 MRSA; CAMHB): 0.5, 0.5 μg/ml | MIC (S. aureus ATCC12600 MRSA; TSB): 0.5, 0.5 μg/ml | MIC (S. aureus ATCC12600 MRSA; Table 6, 1st): 1 µg/mL | MIC (S. aureus ATCC12600 MRSA; Table 6, 2nd): 0.5 µg/mL | MIC (S. aureus ATCC19636 MSSA; CAMHB): 0.5, 0.5 μg/ml | MIC (S. aureus ATCC19636 MSSA; TSB): 0.25, 0.25 μg/ml | MIC (S. aureus ATCC19636 MSSA; Table 6, 1st): 1 µg/mL | MIC (S. aureus ATCC19636 MSSA; Table 6, 2nd): 1 µg/mL | MIC (S. aureus ATCC27659 MSSA; CAMHB): 0.25, 0.25 μg/ml | MIC (S. aureus ATCC27659 MSSA; TSB): 0.25, 0.25 μg/ml | MIC (S. aureus ATCC27659 MSSA; Table 6, 1st): 1 µg/mL | MIC (S. aureus ATCC27659 MSSA; Table 6, 2nd): 0.25 µg/mL | MIC (S. aureus ATCC27660 MSSA; CAMHB): 0.5 µg/mL and 1 µg/mL | MIC (S. aureus ATCC27660 MSSA; TSB): 0.25, 0.25 μg/ml | MIC (S. aureus ATCC27660 MSSA; Table 6, 1st): 2 µg/mL | MIC (S. aureus ATCC27660 MSSA; Table 6, 2nd): 1 µg/mL | MIC (S. aureus ATCC43300 MRSA; S. aureus ATCC43300 MRSA/VISA, Table 6, 1st): 2 µg/mL | MIC (S. aureus ATCC43300 MRSA; S. aureus ATCC43300 MRSA/VISA, Table 6, 2nd): 0.25 µg/mL | MIC (S. aureus ATCC43300 MRSA; S. aureus ATCC43300 MRSA, CAMHB): 1, 1 μg/ml | MIC (S. aureus ATCC43300 MRSA; S. aureus ATCC43300 MRSA, TSB): 0.5, 0.5 μg/ml | MIC ([1]; CAMHB): 0.5 µg/mL and 0.25 µg/mL | MIC ([1]; TSB): 0.25, 0.25 μg/ml | MIC ([1]; Table 6, 1st): 1 µg/mL | MIC ([1]; Table 6, 2nd): 0.5 µg/mL | MIC (S. epidermidis ATCC12228; CAMHB): 0.5, 0.5 μg/ml | MIC (S. epidermidis ATCC12228; TSB): 1, 1 μg/ml | MIC (S. epidermidis ATCC12228; Table 6, 1st): 1 µg/mL | MIC (S. epidermidis ATCC12228; Table 6, 2nd): 0.25 µg/mL | MIC (S. epidermidis ATCC35983; CAMHB): 0.5, 0.5 μg/ml | MIC (S. epidermidis ATCC35983; TSB): 2 µg/mL and 1 µg/mL | MIC (S. epidermidis ATCC35983; Table 6, 2nd): 0.5 µg/mL | MIC (S. epidermidis ATCC35984; CAMHB): 0.5, 0.5 μg/ml | MIC (S. epidermidis ATCC35984; TSB): 0.5, 0.5 μg/ml | MIC (S. epidermidis ATCC35984; Table 6, 1st): 1 µg/mL | MIC (S. epidermidis ATCC35984; Table 6, 2nd): 0.25 µg/mL
